Consider eleven compounds from PubChem BioAssay AID1351 (Sanford-Burnham Center for Chemical Genomics, 2008).

Where “and” joins values, the source holds several entries; their conditions need not be identical. Equal entries are not always repeated.

The test system of this experiment is PPC-1 thapsigargin-induced death, ATPlite luminescence, 24 h. Description: protection of PPC-1 cells from thapsigargin, SAR follow-up, human prostate cancer PPC-1, ATP luminescence (AID 1351). The conditions noted are these: at 25 µM, stronger effect = higher value.
Setting [1] is: measured here: survival at thapsigargin 15 uM.
The mark [2] stands for this setting: measured here: survival at thapsigargin 20 uM.
The mark [3] stands for this setting: survival at lower thapsigargin concentration.

`O=C1CC(c2ccccc2)CC2=C1C(c1c(F)cccc1Cl)Nc1ccccc1N2` (centres undefined): the survival is 90%. Besides, under setting [1], the survival is 35%. Besides, the survival under setting [2] was found to be 18%. Moreover, the survival under setting [3] is 86% and 92%.
Turning to `CCOc1cccc(C2Nc3ccccc3NC3=C2C(=O)CC(c2ccc(OC)cc2)C3)c1` (centres undefined), the survival is 39%. Moreover, under setting [1], the survival amounted to 14%. Further, the survival under setting [2] was 15%. Besides, under setting [3], the survival is 81% and 87%.
In the case of `CCCOc1ccc(C2Nc3ccccc3NC3=C2C(=O)CC(c2ccc(OC)c(OC)c2)C3)cc1` (centres undefined), the survival was 90%. Moreover, the survival under setting [1] was 75%. Under setting [2], this compound gave a survival of 37%. Moreover, under setting [3], the survival is 82% and 81%.
Take `COc1ccc(C2CC(=O)C3=C(C2)Nc2ccccc2NC3c2cccc(Br)c2)cc1OC` (centres undefined): the survival is 85%. The compound also displayed a survival under setting [1] of 102%. The survival under setting [2] was determined as 59%. Further, the survival under setting [3] was 94% and 100%.
In the case of `COc1ccc(C2CC(=O)C3=C(C2)Nc2ccccc2NC3c2ccccc2C(F)(F)F)cc1OC` (centres undefined), the survival is 105%. Besides, the survival under setting [1] amounted to 108%. This compound also gave a survival under setting [2] of 56%. Further, under setting [3], the survival was 97% and 102%.
Turning to `COc1ccc(C2CC(=O)C3=C(C2)Nc2ccccc2NC3c2cc(C)ccc2C)cc1` (centres undefined), the survival was 88%. This compound also returned a survival under setting [1] of 83%. Besides, the survival under setting [2] is 32%. Also, under setting [3], the survival was 85% and 91%.
`COc1ccc(C2CC(=O)C3=C(C2)Nc2ccccc2NC3c2cccc(Oc3ccccc3)c2)cc1OC` (centres undefined): the survival is 89%. Further, the survival under setting [1] is 95%. The same compound gave a survival under setting [2] of 69%. In addition, the survival under setting [3] was 91% and 92%.
Regarding `CC1(C)CC(=O)C2=C(C1)Nc1ccccc1NC2c1ccc(-c2ccccc2)cc1` (centres undefined), the survival is 90%. The survival under setting [1] is 86%. The same compound came in with a survival under setting [2] of 87%. For the same compound, the survival under setting [3] is 81% and 101%.
Turning to `COc1ccc(C2CC(=O)C3=C(C2)Nc2ccccc2NC3c2cccc(C(F)(F)F)c2)cc1OC` (centres undefined), the survival is 94%. Moreover, under setting [1], the survival turned out to be 99%. Also, the survival under setting [2] was found to be 69%. Also, the survival under setting [3] is 93% and 94%.
Consider `CSc1ccc(C2Nc3ccccc3NC3=C2C(=O)CC(c2ccccc2)C3)cc1` (centres undefined), for which the survival was 89%. This compound also yielded a survival under setting [1] of 52%. This compound returned a survival under setting [2] of 26%. Under setting [3], the survival is 95% and 105%.
`CCOc1cc(C2Nc3ccccc3NC3=C2C(=O)CC(c2ccc(OC)cc2)C3)cc(Cl)c1O` (centres undefined): the survival is 62%. The survival under setting [1] stood at 11%. The survival under setting [2] is 8.5%. The survival under setting [3] was 82% and 90%.
